From patent US6054437A, “Method for inducing death of neoplastic cells using piperazine derivatives” (Hitachi Chemical Research Center, Inc., priority 1997, dated 2000) come the findings set out here.

The subject of test [1] is human colon cancer cells. As to the kind of experiment: Subrenal capsule (SRC) tumor implant assay, colon cancer. Type of test: in vivo, human tumor in BDF/1 mice. The protocol:
FIG. 19 is a graph showing the relationship between the change in size of tumor and the dosage of NCO-700 in a sub-renal capsule assay of human colon cancer in BDF/1 mice.
A tumor implant model, where human tumors were implanted into the renal capsule of mice was performed. The tumors successfully escaped the immune system of the mouse and grew over a six-day period. The advantage of this assay is that the effect of chemotherapeutic agents can be tested in vivo. This model was developed at the University of California, Irvine by Stratton et al. (Gynecologic Oncology 17:185-188, 1984). Human tumors were implanted on day one and were exposed to drug on days two-six. The size of the implant was determined at time zero and at the end of five days of drug treatment, and the difference in size of the implanted tumor at day six, when compared to control animals not exposed to drug, is referred to herein as the delta mean.
The effect of NCO-700 on a colon cancer line was tested in the SRC assay. Three groups of animals (n=18 total) were tested with two concentrations of NCO-700 including. 50 mg/kg and 100 mg/kg. […] These studies confirm the high potential of NCO-700 and related compounds as new anti-neoplastic agents.

The test system of test [2] is colon cancer cell lines. As to the kind of experiment: Cancer cell death assay (LDH release), colon lines. Type of test: cell-based, human. Conditions: compound alone, 24 hours. As to the method:
(§1) 1. Cancer Cell Death Assay
(§2) Cell death was measured quantitatively by the release of a marker intracellular enzyme, lactate dehydrogenase (LDH), from damaged or killed cells. LDH released into the extracellular fluid, was measured 24 hours after drug exposure to cancer cells and the enzyme activity was determined by the method of Decker et al. (J. Immunolog Methods 15:61-99, 1988).
(§3) All cell lines used in the present study were obtained from the American Type Tissue Culture Laboratory and cultured according to their specifications. All were human cancer lines unless otherwise noted. The following cell lines and their tissue of origin used in our studies were:
(§4) The first assays performed measured the anti-neoplastic activity of NCO-700, alone, in cell death assays of a wide variety of human cancer cells. The results of these experiments are shown in FIGS. 1-6, where a dose-response curve of NCO-700 versus % LDH release is plotted, with higher values of LDH released indicating greater anti-neoplastic activity (apoptosis).
In FIG. 8, a dose-response curve is shown of the effect of TOP-008 on the killing of breast, prostate and colon cell lines.

In test [3] the test system is ovarian cancer cell lines SW-626 and AN-3-CA. As to the kind of experiment: Cancer cell death assay (LDH release), ovarian lines. Type of test: cell-based, human. Conditions: compound alone, 24 hours. The protocol: FIG. 1 is a graph showing the relationship between LDH released and the concentration of NCO-700 in cancer cell death assays of human ovarian cancer cell lines SW-626 and AN-3-CA.
as §1, §2, §3, §4
For orientation: Release of lactate dehydrogenase indicates damage to the cell membrane.

Test [4] relates to human cancer cells. As to the kind of experiment: Cancer cell death assays against a number of human cancer cells. It is filed as cell-based. The note with it: compounds alone; analogs at 25 μM (FIGS. 20-25). As to the method:
as §2
As described in Experiment 1, three different assays were performed to measure anti-neoplastic activity of compounds.
The first assays performed measured the anti-neoplastic activity of NCO-700 analogs in cell death assays against a number of human cancer cells. The results of these experiments are shown in FIGS. 20-25, where a bar graph indicates the activity of a particular analog as measured by the % LDH released, with higher values of LDH released indicating greater anti-neoplastic activity (apoptosis). All analogs were tested at a concentration of 25 μM.

Test [5] deals with KB-3 (sensitive cells). As to the kind of experiment: Drug accumulation assay ([3H]-vinblastine), sensitive cells. Type of test: cell-based, human. Conditions: KB-3, 20 μM NCO-700 + vinblastine. As to the method:
1. Drug Accumulation Assays
where the effect of NCO-700 on the uptake of radioactive (^3 H)-vinblastine, an anticancer drug, is measured in cultured cancer cells, that are both drug-resistant and drug-sensitive (Reference 3).
In the first two in vitro assays, the drug accumulation assay and the cell survival assay, a human pharyngeal carcinoma cell line (KB-V-1) which is highly resistant to anticancer drugs was used. This cell line was developed by Drs. Ira Pastan and Michael Gottesman of the National Cancer Institute, by step-wise selection in colchicine of drug-resistant cells. The control cancer cell line (KB-3), from which the resistant cell lines were derived, is sensitive to anticancer drugs. The resistant KB-V-1 cell line is approximately 275 times more resistant to vinblastine than the sensitive KB-3 line and has a greatly amplified mdr gene which generates the observed resistance.
Measurement of [^3 H]-vinblastine accumulation was performed by the methods developed in the laboratory of Drs. Gottesman and Pastan (Fojo et al., Cancer Res. 45:3002-3007, 1985). […] After an additional 30 min, the medium was removed, the plates were washed three times in ice-cold phosphate-buffered saline, the cells were detached with trypsin, and radioactivity determined by scintillation counting.

The subject of test [6] is HS-578T (breast). As to the kind of experiment: Cancer cell death assay (LDH release), HS-578T. It is filed as cell-based, human. The note with it: HS-578T, 25 μM, 1,000 and 1,500 cells/well (FIGS. 34, 35). The protocol:
as §1, §2
A series of analogs related to NCO-700 were assayed in the cancer cell death assay. […] It should be stressed that these analogs were tested alone, without any added chemotherapeutic agent.
Based on Experiment 1 above, the anti-cancer activity of NCO-700, TOP-008, and analogs, TOP-201, 202, 203, 204, 205, 206, 207, and 007, was tested in cancer cell death assays of human cancer cell line HS-578T. In FIGS. 34 (1,000 cells/well) and 35 (1,500 cells/well), a bar graph indicates the activity of a particular analog as measured by the % LDH released (DMSO, dimethyl sulfoxide=control), with higher values of LDH released indicating greater anti-neoplastic activity. All analogs were tested at a concentration of 25 μM.

For test [7], the system named is PC-3 (prostate tumor cell line). As to the kind of experiment: Apoptosis induced DNA fragmentation (agarose gel). The note with it: PC-3, 50 μM, 48 hours. It is filed as cell-based, human. The protocol: PC-3, a prostate tumor cell line, was treated with 25 μM TOP-008, 50 μM NCO-700, or water for 48 hours. The DNA from each sample was purified by phenol extraction, and the fragmentation was resolved on an agarose gel.

SMILES strings stand for the structures. Where a name gives a salt, the structure may show the parent alone.

Turning to `CCOC(=O)[C@@H]1O[C@H]1C(=O)N[C@@H](CC(C)C)C(=O)N1CCN(Cc2ccc(OC)c(OC)c2OC)CC1` [NCO-700, Bis[ethyl (2R,3R)-3-[(S)-3-methyl-1-[4-(2,3,4-trimethoxyphenylmethyl)piperazin-1-ylcarbonyl]butylcarbamoyl]oxirane-2-carboxylate] Sulfate], the figures for the “effect on tumor size” value in test [1] (50 mg/kg) and in test [1] (100 mg/kg) were “slight effect” and “significant anti-neoplastic effect”, respectively. For the same compound, the “anti-neoplastic activity (LDH release)” value in test [2] and in test [3] was “partly responsive” throughout. For the same compound, the “anti-neoplastic activity, selectivity among human cancer cells” value in test [4] is listed as “highly effective as an anti-neoplastic agent versus selective tumors”. Further, the vinblastine accumulation in test [5] is 3.17 ± 0.09 pmole vinblastine/mg protein. Moreover, the “anti-neoplastic activity (% LDH released)” value in test [6] is reported as “fairly good anti-neoplastic activity”. For the same compound, in test [7], the DNA fragmentation entry is on record as “significant DNA fragmentation”.
